From patent publication US20230079732A1, “OPAL PEPTIDE ADMINISTRATION” (priority 2020, published 2023)
Where two headings read alike, the source gives them in different places.

Columns and labels:
blood glucose [1] = assay: Insulin tolerance test in diabetic NOD/Scid mouse model (FIG. 8); assay type: in vivo, NOD/Scid mice; settings: oral gavage versus subcutaneous injection
Protocol: NOD mice with a blood glucose below […] were treated with SC-INS (1 IU/kg) or QD-INS (25 IU/kg) at time 0, mice with a blood glucose above […] were treated with 4 IU/kg SC-INS or 100 IU/kg QD-INS. Blood glucose samples were collected at −15, 0, 15, 30, 45 and 60 mins. […] Data points showing the mean±SD.
Blood glucose was measured used a handheld Glucometer using Accu-check proforma strips. Blood was collected by tail vein sampling following a tail snip. Blood glucose was collected at −15, 0, 15, 30, 45 and 60 mins after a subcutaneous (SC) insulin injection (0.1, 1 or 2 IU/kg) or a gavage of QD-insulin conjugates (10, 20, 30, 40, 50, 75 or 100 IU/kg).

[2] = in vivo, po
Protocol: (§1) Conjugates of radiolabeled insulin and quantum dots were produced in a method as described above, albeit with radiolabeled insulin used instead of native insulin. Two groups of healthy rodents were then orally administered either a dose of conjugates or equivalent radiolabeled unbound insulin. The distribution of radioactivity was then monitored 30 minutes after administration.

blood glucose [3] = assay: Oral glucose tolerance test (oGTT), SC-INS versus QD-INS (FIG. 5); assay type: in vivo, C57BL/6 mice; settings: oral gavage 20 IU/kg, 30 minutes before oGTT
Protocol: A further study was carried out on healthy rodents without diabetic symptoms comparing a saline subcutaneous injection (control), a subcutaneous injection of insulin (SC-INS, 2 IU/kg), or an oral gavage of oral-insulin (QD-INS, 20 IU/kg) 30 minutes before a glucose tolerance test (oGTT).

blood glucose [4] = assay: Glucose tolerance test with an oral dose of conjugate (FIG. 4); assay type: in vivo, rodents; settings: for effect on blood glucose after glucose gavage: 30 minutes before glucose gavage, monitored 90 minutes (FIG. 4 legend)
Protocol: Each subject was then monitored for blood glucose over the 90 minutes after receiving the glucose gavage.
A population of 30 healthy rodents without diabetic symptoms were obtained, and were divided into six treatment groups: one group of 5 rodents received 2 IU/kg of insulin by intraperitoneal injection 30 minutes prior to a glucose gavage; one group received 100 IU/kg of insulin by via oral gavage 30 minutes prior to a glucose gavage; […] gavage; one group of 5 […] gavage and one group of five rodents were given only a glucose gavage. Blood glucose of all rodents were then monitored over 90 minutes post-glucose gavage.

[5] = Biodistribution of ^14C radiolabelled insulin (FIG. 6); settings: for main location of radiolabelled insulin: after 30 minutes, mice fasted 4 hours
Protocol: Tissue samples and blood plasma were prepared for radiolabel component analysis according to standard methods. Data is presented in this figure is as a percentage of radiolabel insulin relative to the administrated dosage, data is shown as mean±SD.
Three mice treatment groups were fasted for 4 hours before given either an oral gavage of insulin (Oral INS), a subcutaneous injection of insulin (SC-INS) or an oral gavage of QD-insulin conjugate (QD-INS) at 2 IU/kg doses.

[6] = Uptake of radiolabeled insulin-quantum dot conjugate after oral administration; settings: 30 minutes after oral administration, healthy rodents
Protocol: as §1

Substance: QD-insulin: Ag2S quantum dot conjugated to insulin by EDC/NHS, then assembled with chitosan with galactose or glucose biopolymer
- QD-insulin dose relative to the SC-insulin dose that resulted in similar glucose reductions (blood glucose [1]): about 25 times
- radioactive label found in the liver [2]: Approximately 50%
- lowering of blood glucose levels in oGTT compared with injected insulin (SC-INS, 2 IU/kg) (blood glucose [3]): as effective
- effect on blood glucose after glucose gavage (blood glucose [4]; oral gavage equivalent to 20 IU/kg insulin): reduced the blood glucose of the rodent subjects by an approximately equivalent amount
- blood glucose lowering effects compared with the injected insulin (blood glucose [4]; orally administered): equal, if not better
- blood glucose lowering, no spike after glucose gavage (blood glucose [4]; quantum dot insulin group, oral, 30 minutes prior to glucose gavage (Example 3)): effective in lowering blood glucose

Substance: insulin
- main location of radiolabelled insulin ([5]; oral gavage 2 IU/kg): mainly located in the small bowel
- main location of radiolabelled insulin ([5]; subcutaneous injection 2 IU/kg): found in the liver and blood
- location of radiolabelled insulin ([5]; after 2 hours, oral gavage 2 IU/kg): still located in the bowel
- radiolabelled insulin located in the liver ([5]; after 2 hours, subcutaneous injection 2 IU/kg): about 50%
- radioactive label found in the liver [6]: approximately 1%
- blood glucose lowering, no spike after glucose gavage (blood glucose [4]; 2 IU/kg by intraperitoneal injection 30 minutes prior to glucose gavage (Example 3)): effective in lowering blood glucose
- effect on blood glucose after glucose gavage (blood glucose [4]; intraperitoneal injection equivalent to 0.1 IU/kg insulin): reduced the blood glucose of the rodent subjects by an approximately equivalent amount
